Measured values taken from patent publication US7989613B2, “Inhibition of metallo-β-lactamase by RNA” (priority 2005, dated 2011).
Entries after “also recorded” stand apart in the source; their conditions may differ. Read-outs that look alike come from different tables or passages of the source.

How the values were obtained:
[1] = molecular target: T1, bovine carboxypeptidase A (Bos taurus, UniProt P00730); experiment: Inhibition of carboxypeptidase A (hydrolysis of hippuryl-L-phenylalanine, 254 nm); format: biochemical; conditions: 250 nM of the 30-mer (23×IC50), 1 mM hippuryl-L-phenylalanine, 0.05 M Tris-HCl pH 7.5, 0.5 M NaCl
T1 construct: purchased Sigma
T1 sequence (P00730 111-419): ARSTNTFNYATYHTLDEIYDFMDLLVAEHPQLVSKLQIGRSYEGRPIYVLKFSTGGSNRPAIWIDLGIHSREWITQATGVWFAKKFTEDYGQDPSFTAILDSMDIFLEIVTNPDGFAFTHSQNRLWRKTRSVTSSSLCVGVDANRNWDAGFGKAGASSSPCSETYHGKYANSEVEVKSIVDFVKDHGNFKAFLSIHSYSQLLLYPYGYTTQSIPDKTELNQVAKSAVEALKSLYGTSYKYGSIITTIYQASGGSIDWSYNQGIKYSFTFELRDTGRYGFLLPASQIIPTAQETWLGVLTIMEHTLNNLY
Description: Assay of bovine carboxypeptidase A. The assay of bovine carboxypeptidase A is based on the method of Folk and Schirmer (1963). The rate of hydrolysis of hippuryl-L-phenylalanine is determined by monitoring the increase in absorbance at 254 nm (25° C., pH 7.5). The enzyme was dissolved in 10% lithium chloride to a concentration of 1-3 units per mL. Hippuryl-L-phenylalanine (0.001 M) was dissolved in 0.05 M Tris-HCl, pH 7.5, with 0.5 M sodium chloride. In a 1-cm pathlength cuvette, 1.0 mL of substrate was added and incubated in the spectrophotometer at 25° C. for 3-4 minutes to reach temperature equilibration and to establish blank rate. 50 μL of diluted enzyme was added to record the increase in AbS254.
In addition, the zinc dependent bovine carboxypeptidase A was used to test the specificity of inhibition by this 30-mer. […] The concentration of the substrate (hippuryl-L-phenylalanine) was 1 mM in the buffer (0.05 M Tris-HCl, pH 7.5, with 0.5 M sodium chloride).

[2] = molecular target: B. cereus 569/H/9 β-lactamase I (Bacillus cereus, UniProt P00809); conditions: 250 nM of the 30-mer (23×IC50); 1.1 mM benzylpenicillin, 50 mM MOPS pH 7.0; listed as 30-mer
Sequence of B. cereus 569/H/9 β-lactamase I (P00809 28-306): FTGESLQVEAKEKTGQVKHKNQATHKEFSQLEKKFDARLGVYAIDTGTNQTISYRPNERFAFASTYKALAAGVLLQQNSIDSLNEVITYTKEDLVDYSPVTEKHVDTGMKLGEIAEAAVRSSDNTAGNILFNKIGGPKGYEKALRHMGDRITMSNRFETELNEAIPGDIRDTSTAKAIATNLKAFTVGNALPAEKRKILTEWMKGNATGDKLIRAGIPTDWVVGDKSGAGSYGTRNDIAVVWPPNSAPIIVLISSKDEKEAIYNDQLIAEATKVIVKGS
Description: The β-lactamase I activity assays used was modified from Davies et al. (1974), which described a general method of β-lactamase I activity assays. Briefly, the enzyme was incubated with 20 mM EDTA (pH 7.0) for 15 min. at room temperature prior to the assay. The enzymatic hydrolysis of 1.1 mM benzylpenicillin in […] MOPS (pH 7.0) and 1 mM EDTA was continuously monitored at 231 nm at 30° C. in a 1-cm pathlength quartz cell in a total volume of 1 mL. One unit of β-lactamase activity was generally defined as the amount of enzyme required to hydrolyze about one μmole of substrate/min. at 30° C. at pH 7.0.
An experiment was performed to test the specificity of inhibition of the 30-mer (Seq ID No.:6). The inhibition of B. cereus 569/H/9 β-lactamase I (Seq ID No.:7) was tested using various concentrations of the 30-mer RNA. The concentration of the substrate (benzylpenicillin) was 1.1 mM in the buffer (50 mM MOPS (pH 7.0)/1 […] EDTA).

[3] = molecular target: B. cereus 5/B/6 metallo-β-lactamase (Bacillus cereus, UniProt P14488); conditions: for IC50: […] cephalosporin C; for Ki: steady-state kinetics
Sequence of B. cereus 5/B/6 metallo-β-lactamase (P14488 29-256, looked up, natural form): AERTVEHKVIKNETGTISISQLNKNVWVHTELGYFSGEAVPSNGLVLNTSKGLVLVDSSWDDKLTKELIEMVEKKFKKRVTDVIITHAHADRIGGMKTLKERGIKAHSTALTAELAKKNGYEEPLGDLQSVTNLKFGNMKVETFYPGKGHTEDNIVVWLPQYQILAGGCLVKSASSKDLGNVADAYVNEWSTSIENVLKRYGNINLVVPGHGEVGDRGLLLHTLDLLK
Description: Assay of the purified B. cereus 5/B/6 metallo-β-lactamase and B. cereus 569/H/9 β-lactamase I. Metallo-β-lactamase activity assays using cephalosporin C as substrate were determined as previously reported (Myers and Shaw, 1989). The cephalosporin C absorbance maximum at 260 nm was monitored as a function of time (Davies et al., 1974). One unit of activity is generally defined as the amount of enzyme required to catalyze the hydrolysis of about 1 μmol of β-lactam substrate (cephalosporin C) per minute at 30° C. at pH 7.0. […] The assays were carried out at 30° C. in a 0.1 cm path length quartz cell and the total assay volume was 250 μL.
Reversible inhibition studies for metallo-β-lactamase. To test for reversible inhibition, metallo-β-lactamase was incubated with various concentrations of the possible inhibitors in 50 mM MOPS buffer, pH 7.0. The enzyme activity remaining was determined (Myers and Shaw, 1989).
Various assays were conducted with the 30-mer RNA in the presence of metallo-β-lactamase to determine its inhibition values (IC50, Ki, and Ki′). The 30-mer RNA was tested for inhibition of β-lactamase I and bovine carboxypeptidase A. The 30-mer RNA was also tested for inhibition of metallo-β-lactamase in the presence of Zn^2+.
30-mer RNA. The IC50 value for the 30-mer RNA was determined by measuring the rate of enzymatic hydrolysis of cephalosporin C with different amounts of the 30-mer RNA.

“5′-UGGCUGCAGGGUCUGGCCCCCCGUUUGGUG-3′ (UGGCUGCAGGGUCUGGCCCCCCGUUUGGUG; chemistry not given here) [30-mer RNA]” was tested, and the “effect on the activity of carboxypeptidase A” value [1] was “lack of inhibition; also recorded: do not show inhibition”, the “effect on the activity of carboxypeptidase A” value ([1]; listed as 30-mer) was “no effect” and the “effect on the activity of B. cereus 569/H/9 β-lactamase I” value [2] was “no effect”. The IC50 ([3]; read-out: IC50 for B. cereus 5/B/6 metallo-β-lactamase in the presence of Zn2+ ions, 50 mM MOPS and 1 mM ZnSO4, pH 7.0) was 19300 nM, the IC50 ([3]; read-out: IC50 for B. cereus 5/B/6 metallo-β-lactamase, 50 mM MOPS pH 7.0, no added Zn2+) was 11 nM and the Ki ([3]; read-out: Ki (dissociation constant for the inhibitor from the enzyme-inhibitor complex), slope replot) was 2 nM. For the same substance, the Ki ([3]; read-out: Ki′ (dissociation constant for the inhibitor from the enzyme-substrate-inhibitor complex), intercept replot) was 15 nM, the “IC50 / inhibition of metallo-β-lactamase, range in words” value ([3]; stated in words) was “nanomolar range” and the type of inhibition ([3]; steady-state kinetic study, Lineweaver-Burk plot) was “noncompetitive inhibition”.
